Drawing on publication PMC5854716, “Synthesis, molecular docking, ctDNA interaction, DFT calculation and evaluation of antiproliferative and anti-Toxoplasma gondii activities of 2,4-diaminotriazine-thiazole derivatives” (Medicinal Chemistry Research, 2018), this text covers viability, activity and IC50 for five compounds.

In brackets after ≈: the same amount, converted by molar mass.

A short description of data set [1]: Cell viability assay (MTT), L929. Type of data set: cell-based, Mus musculus. To be noted: mouse, L929 fibroblast cells. In short, it runs like this: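 L929 and VERO cells seeded at 1.0 × 10^4/well, attached 24 h, then exposed 24 h to compounds at 0.9–125.00 μg/ml (from DMSO stock). MTT (1 mg/ml) added for 2 h at 37 °C, formazan dissolved in DMSO, OD read at 550 nm. Viability expressed as percentage of 2.5% DMSO-treated controls; triplicate.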

The subject of data set [2] is Toxoplasma gondii BK strain. The data set is described as follows: T. gondii tachyzoite intracellular proliferation in VERO host cells ([3H]uracil incorporation). Particulars: Toxoplasma gondii, VERO host cells; for IC50: GraphPad Prism curves, read-out: IC50 (50% inhibition of T. gondii proliferation in vitro). Type of data set: cell-based. In short, it runs like this:
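VERO monolayers (2 × 10^4 cells/well) infected with 2 × 10^5 T. gondii tachyzoites/well in medium containing compounds at 0.9–125.00 μg/ml, with sulfadiazine at 5.0–2500.0 μg/ml as control, for 48 h at 37 °C. Growth measured by [3H]uracil incorporation over a further 18–20 h by scintillation counting, with host-cell-only cpm subtracted.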

Broadly, the viability is a read-out of living cells in per cent, often relative to untreated cells.

`C/C(=N\Nc1nc(-c2ccc(Br)cc2)cs1)c1ccc(Nc2nc(N)nc(N)n2)cc1` [Compound 4d, (E)-N^2-(4-(1-(2-(4-(4-bromophenyl)-1,3-thiazol-2-yl)hydrazinylidene)ethyl)phenyl)-1,3,5-triazine-2,4,6-triamine]: in data set [1], the viability at 24 h, 0.9 µg/ml was 99.9%; the viability at 24 h, 1.8 µg/ml turned out to be 97.8%; the viability at 24 h, 3.9 µg/ml was 99.9%; the viability at 24 h, 7.8 µg/ml was 93.7%. In data set [1], the viability at 24 h, 15.6 µg/ml turned out to be 108%; the viability at 24 h, 31.2 µg/ml was determined as 113%; the viability at 24 h, 62.5 µg/ml is 115%; the viability at 24 h, 125 µg/ml amounted to 113%. Also, in data set [2], the activity at 0.9 µg/mL was determined as 102%, the activity at 1.8 µg/mL stood at 104%, the activity at 3.9 µg/mL stood at 102% and the activity at 7.8 µg/mL came to 106%. Further, in data set [2], the activity at 15.6 µg/mL is 75.2%, the activity at 31.2 µg/mL came to 62.8%, the activity at 62.5 µg/mL came to 29.3% and the activity at 125 µg/mL turned out to be 15.1%. Moreover, the IC50 in data set [2] is 37.8 µg/mL (≈ 76.2 µM).
Consider `C/C(=N\Nc1nc(-c2ccc(I)cc2)cs1)c1ccc(Nc2nc(N)nc(N)n2)cc1` [Compound 4e, (E)-N^2-(4-(1-(2-(4-(4-iodophenyl)-1,3-thiazol-2-yl)hydrazinylidene)ethyl)phenyl)-1,3,5-triazine-2,4,6-triamine], for which, in data set [1], the viability at 24 h, 0.9 µg/ml was 96%; the viability at 24 h, 1.8 µg/ml is 97.6%; the viability at 24 h, 3.9 µg/ml came out at 99.1%; the viability at 24 h, 7.8 µg/ml is 88.8%. Moreover, in data set [1], the viability at 24 h, 15.6 µg/ml stood at 98.8%; the viability at 24 h, 31.2 µg/ml worked out at 108%; the viability at 24 h, 62.5 µg/ml came out at 109%; the viability at 24 h, 125 µg/ml came out at 101%. In addition, in data set [2], the activity at 0.9 µg/mL stood at 103%, the activity at 1.8 µg/mL came out at 104%, the activity at 3.9 µg/mL worked out at 99.9% and the activity at 7.8 µg/mL is 92.8%. Also, in data set [2], the activity at 15.6 µg/mL stood at 80.7%, the activity at 31.2 µg/mL came to 75.1%, the activity at 62.5 µg/mL was 48.7% and the activity at 125 µg/mL was 14.6%. Also, in data set [2], the IC50 was determined as 49.2 µg/mL (≈ 90.5 µM).
Take `C/C(=N\Nc1nc(-c2ccc([N+](=O)[O-])cc2)cs1)c1ccc(Nc2nc(N)nc(N)n2)cc1` [Compound 4h, (E)-N^2-(4-(1-(2-(4-(4-nitrophenyl)-1,3-thiazol-2-yl)hydrazinylidene)ethyl)phenyl)-1,3,5-triazine-2,4,6-triamine]: in data set [1], the viability at 24 h, 0.9 µg/ml is 100%; the viability at 24 h, 1.8 µg/ml turned out to be 98.5%; the viability at 24 h, 3.9 µg/ml is 100%; the viability at 24 h, 7.8 µg/ml is 105%. In data set [1], the viability at 24 h, 15.6 µg/ml is 105%; the viability at 24 h, 31.2 µg/ml came to 114%; the viability at 24 h, 62.5 µg/ml worked out at 118%; the viability at 24 h, 125 µg/ml turned out to be 104%. In addition, in data set [2], the activity at 0.9 µg/mL was 103%, the activity at 1.8 µg/mL stood at 105%, the activity at 3.9 µg/mL turned out to be 113% and the activity at 7.8 µg/mL stood at 101%. In data set [2], the activity at 15.6 µg/mL turned out to be 85.7%, the activity at 31.2 µg/mL was determined as 77.5%, the activity at 62.5 µg/mL was found to be 74% and the activity at 125 µg/mL was determined as 39.4%. The IC50 in data set [2] is 119 µg/mL (≈ 257 µM).
As for `C/C(=N\Nc1nc(-c2ccc(Cl)c(Cl)c2)cs1)c1ccc(Nc2nc(N)nc(N)n2)cc1` [Compound 4i, (E)-N^2-(4-(1-(2-(4-(3,4-dichlorophenyl)-1,3-thiazol-2-yl)hydrazinylidene)ethyl)phenyl)-1,3,5-triazine-2,4,6-triamine], in data set [1], the viability at 24 h, 0.9 µg/ml is 101%; the viability at 24 h, 1.8 µg/ml was 97.9%; the viability at 24 h, 3.9 µg/ml was 96.1%; the viability at 24 h, 7.8 µg/ml was determined as 100%. Further, in data set [1], the viability at 24 h, 15.6 µg/ml stood at 98.1%; the viability at 24 h, 31.2 µg/ml was 108%; the viability at 24 h, 62.5 µg/ml came out at 100%. Besides, in data set [2], the activity at 0.9 µg/mL is 101%, the activity at 1.8 µg/mL worked out at 102%, the activity at 3.9 µg/mL worked out at 79% and the activity at 7.8 µg/mL came to 55.9%. Besides, in data set [2], the activity at 15.6 µg/mL was 45.7%, the activity at 31.2 µg/mL came to 41.1% and the IC50 came out at 14.9 µg/mL (≈ 30.7 µM).
`C/C(=N\Nc1nc(-c2ccccc2)cs1)c1ccc(Nc2nc(N)nc(N)n2)cc1` [Compound 4k, (E)-N^2-(4-(1-(2-(4-phenyl-1,3-thiazol-2-yl)hydrazinylidene)ethyl)phenyl)-1,3,5-triazine-2,4,6-triamine]: in data set [1], the viability at 24 h, 0.9 µg/ml was found to be 109%; the viability at 24 h, 1.8 µg/ml was 107%; the viability at 24 h, 3.9 µg/ml was determined as 106%; the viability at 24 h, 7.8 µg/ml was found to be 101%. Besides, in data set [1], the viability at 24 h, 15.6 µg/ml came out at 106%; the viability at 24 h, 31.2 µg/ml turned out to be 111%; the viability at 24 h, 62.5 µg/ml turned out to be 116%; the viability at 24 h, 125 µg/ml stood at 130%. In data set [2], the activity at 0.9 µg/mL is 100%, the activity at 1.8 µg/mL turned out to be 100%, the activity at 3.9 µg/mL came to 96.3% and the activity at 7.8 µg/mL was 85.9%. Moreover, in data set [2], the activity at 15.6 µg/mL was 63.6%, the activity at 31.2 µg/mL amounted to 49.4%, the activity at 62.5 µg/mL turned out to be 36.1% and the activity at 125 µg/mL came out at 17.7%. In data set [2], the IC50 was 31.5 µg/mL (≈ 75.5 µM).
